pKi: −log10 of the molar value.
Tests used:
[1] = molecular target: 5-hydroxytryptamine receptor 1A (Homo sapiens) (UniProt P08908); conditions: Compound concentration 10.0 uM
[2] = molecular target: T1, 5-hydroxytryptamine receptor 2C (Homo sapiens, UniProt P28335); assay: GPCRScan assay: inhibition of 5-HT2C; design: radioligand conc. used [nm] 1.0 – 2.5, parental cells HEK T; conditions: for pKi: read-out: Ki; for Ki: read-out: pKi (converted)
T1 sequence (P28335 whole entry): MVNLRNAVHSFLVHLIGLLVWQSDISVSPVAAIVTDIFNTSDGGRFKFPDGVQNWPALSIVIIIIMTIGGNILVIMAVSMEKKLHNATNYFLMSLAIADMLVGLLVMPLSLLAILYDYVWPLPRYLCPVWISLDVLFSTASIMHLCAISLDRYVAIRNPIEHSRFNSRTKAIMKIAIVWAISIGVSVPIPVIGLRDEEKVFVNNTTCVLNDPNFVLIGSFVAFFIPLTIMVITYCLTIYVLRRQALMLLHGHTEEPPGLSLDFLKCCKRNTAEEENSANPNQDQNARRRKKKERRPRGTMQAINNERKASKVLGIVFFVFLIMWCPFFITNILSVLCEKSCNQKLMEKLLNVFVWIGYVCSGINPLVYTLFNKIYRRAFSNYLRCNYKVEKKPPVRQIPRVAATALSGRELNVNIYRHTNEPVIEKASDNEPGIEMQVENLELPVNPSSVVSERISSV

[3] = molecular target: Alpha-1A adrenergic receptor (Homo sapiens) (UniProt P35348); conditions: Compound concentration 10.0 uM
[4] = molecular target: Alpha-1D adrenergic receptor (Homo sapiens) (UniProt P25100); conditions: Compound concentration 10.0 uM
[5] = molecular target: Muscarinic acetylcholine receptor M4 (Homo sapiens) (UniProt P08173); conditions: Compound concentration 10.0 uM
[6] = molecular target: D(1A) dopamine receptor (Homo sapiens) (UniProt P21728); conditions: Compound concentration 10.0 uM
[7] = molecular target: Delta-type opioid receptor (Homo sapiens) (UniProt P41143); conditions: Compound concentration 10.0 uM
Delta-type opioid receptor (Homo sapiens), sequence (P41143 whole entry): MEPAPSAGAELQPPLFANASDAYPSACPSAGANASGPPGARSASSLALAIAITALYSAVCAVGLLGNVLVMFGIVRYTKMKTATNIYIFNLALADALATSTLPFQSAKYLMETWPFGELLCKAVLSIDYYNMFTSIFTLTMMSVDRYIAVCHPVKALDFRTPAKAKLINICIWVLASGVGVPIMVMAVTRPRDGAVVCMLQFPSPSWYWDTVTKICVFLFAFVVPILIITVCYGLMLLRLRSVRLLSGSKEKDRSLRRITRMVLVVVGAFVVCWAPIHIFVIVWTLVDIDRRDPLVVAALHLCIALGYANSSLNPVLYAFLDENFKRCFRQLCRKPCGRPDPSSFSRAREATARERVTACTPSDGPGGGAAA

[8] = molecular target: T2, Sodium-dependent noradrenaline transporter (Homo sapiens, UniProt P23975); assay: GPCRScan assay: inhibition of NET; design: radioligand conc. used [nm] 1.3 – 5.0, parental cells stable HEK; conditions: for pKi: read-out: Ki; for Ki: read-out: pKi (converted)
T2 sequence (P23975 whole entry): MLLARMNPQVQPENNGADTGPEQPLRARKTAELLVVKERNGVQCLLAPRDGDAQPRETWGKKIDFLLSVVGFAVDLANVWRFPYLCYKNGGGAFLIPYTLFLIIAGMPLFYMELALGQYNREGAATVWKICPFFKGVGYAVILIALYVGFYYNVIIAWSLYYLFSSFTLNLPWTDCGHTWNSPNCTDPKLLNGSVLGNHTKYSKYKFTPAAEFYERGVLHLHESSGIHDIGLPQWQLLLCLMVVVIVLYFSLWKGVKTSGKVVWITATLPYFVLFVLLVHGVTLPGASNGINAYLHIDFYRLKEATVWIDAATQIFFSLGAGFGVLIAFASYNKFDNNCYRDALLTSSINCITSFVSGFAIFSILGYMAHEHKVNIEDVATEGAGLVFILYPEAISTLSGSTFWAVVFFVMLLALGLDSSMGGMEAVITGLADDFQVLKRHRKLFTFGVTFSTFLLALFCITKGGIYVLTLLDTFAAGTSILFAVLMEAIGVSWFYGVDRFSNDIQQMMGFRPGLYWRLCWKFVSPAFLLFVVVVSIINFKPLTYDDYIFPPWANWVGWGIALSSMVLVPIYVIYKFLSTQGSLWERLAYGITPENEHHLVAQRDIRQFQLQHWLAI

[9] = molecular target: Alpha-2C adrenergic receptor (Homo sapiens) (UniProt P18825); conditions: Compound concentration 10.0 uM
[10] = molecular target: Muscarinic acetylcholine receptor M5 (Homo sapiens) (UniProt P08912); conditions: Compound concentration 10.0 uM
Muscarinic acetylcholine receptor M5 (Homo sapiens), sequence (P08912 whole entry): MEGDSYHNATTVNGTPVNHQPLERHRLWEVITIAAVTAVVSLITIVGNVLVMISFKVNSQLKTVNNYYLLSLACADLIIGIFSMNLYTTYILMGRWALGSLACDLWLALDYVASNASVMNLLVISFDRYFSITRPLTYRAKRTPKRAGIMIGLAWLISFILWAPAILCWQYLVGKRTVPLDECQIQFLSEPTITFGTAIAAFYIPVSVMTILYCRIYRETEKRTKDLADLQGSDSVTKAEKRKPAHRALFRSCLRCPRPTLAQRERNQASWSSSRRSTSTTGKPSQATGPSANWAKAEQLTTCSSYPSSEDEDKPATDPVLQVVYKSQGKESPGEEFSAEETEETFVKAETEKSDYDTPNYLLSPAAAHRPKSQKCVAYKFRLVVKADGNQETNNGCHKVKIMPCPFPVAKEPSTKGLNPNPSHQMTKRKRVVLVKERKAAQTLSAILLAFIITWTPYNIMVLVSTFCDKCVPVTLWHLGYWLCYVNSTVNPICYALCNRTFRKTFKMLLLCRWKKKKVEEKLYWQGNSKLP

[11] = molecular target: Sodium-dependent serotonin transporter (Homo sapiens) (UniProt P31645); conditions: Compound concentration 10.0 uM
[12] = molecular target: 5-hydroxytryptamine receptor 1D (Homo sapiens, UniProt P28221); assay: GPCRScan assay: inhibition of 5-HT1D; design: radioligand conc. used [nm] 1.0 – 2.0, parental cells HEKT; conditions: for pKi: read-out: Ki; for Ki: read-out: pKi (converted)
5-hydroxytryptamine receptor 1D, sequence (P28221 whole entry): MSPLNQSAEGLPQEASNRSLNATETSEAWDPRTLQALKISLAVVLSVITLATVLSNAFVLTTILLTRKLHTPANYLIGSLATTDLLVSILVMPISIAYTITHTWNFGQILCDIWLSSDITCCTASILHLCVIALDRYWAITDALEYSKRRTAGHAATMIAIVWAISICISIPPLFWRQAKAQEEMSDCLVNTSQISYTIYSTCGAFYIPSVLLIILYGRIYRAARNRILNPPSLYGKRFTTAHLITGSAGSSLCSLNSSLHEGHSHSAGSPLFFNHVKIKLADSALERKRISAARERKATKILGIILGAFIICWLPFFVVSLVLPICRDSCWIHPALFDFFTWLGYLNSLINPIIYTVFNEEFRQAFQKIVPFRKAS

[13] = molecular target: Sigma non-opioid intracellular receptor 1 (Homo sapiens, UniProt Q99720); conditions: Compound concentration 10.0 uM
[14] = molecular target: 5-hydroxytryptamine receptor 2B (Homo sapiens, UniProt P41595); conditions: Compound concentration 10.0 uM
[15] = molecular target: T2, Sodium-dependent noradrenaline transporter; conditions: Compound concentration 10.0 uM
[16] = molecular target: Sigma intracellular receptor 2 (Homo sapiens, UniProt Q5BJF2); conditions: Compound concentration 10.0 uM
Sigma intracellular receptor 2, sequence (Q5BJF2 whole entry): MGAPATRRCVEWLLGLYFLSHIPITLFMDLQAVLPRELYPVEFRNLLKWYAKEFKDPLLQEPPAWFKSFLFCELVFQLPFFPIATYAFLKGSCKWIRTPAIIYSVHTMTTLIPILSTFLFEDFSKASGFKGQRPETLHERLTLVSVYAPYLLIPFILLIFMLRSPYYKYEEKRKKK

[17] = molecular target: Sodium-dependent dopamine transporter (Homo sapiens, UniProt Q01959); conditions: Compound concentration 10.0 uM
Sodium-dependent dopamine transporter, sequence (Q01959 whole entry): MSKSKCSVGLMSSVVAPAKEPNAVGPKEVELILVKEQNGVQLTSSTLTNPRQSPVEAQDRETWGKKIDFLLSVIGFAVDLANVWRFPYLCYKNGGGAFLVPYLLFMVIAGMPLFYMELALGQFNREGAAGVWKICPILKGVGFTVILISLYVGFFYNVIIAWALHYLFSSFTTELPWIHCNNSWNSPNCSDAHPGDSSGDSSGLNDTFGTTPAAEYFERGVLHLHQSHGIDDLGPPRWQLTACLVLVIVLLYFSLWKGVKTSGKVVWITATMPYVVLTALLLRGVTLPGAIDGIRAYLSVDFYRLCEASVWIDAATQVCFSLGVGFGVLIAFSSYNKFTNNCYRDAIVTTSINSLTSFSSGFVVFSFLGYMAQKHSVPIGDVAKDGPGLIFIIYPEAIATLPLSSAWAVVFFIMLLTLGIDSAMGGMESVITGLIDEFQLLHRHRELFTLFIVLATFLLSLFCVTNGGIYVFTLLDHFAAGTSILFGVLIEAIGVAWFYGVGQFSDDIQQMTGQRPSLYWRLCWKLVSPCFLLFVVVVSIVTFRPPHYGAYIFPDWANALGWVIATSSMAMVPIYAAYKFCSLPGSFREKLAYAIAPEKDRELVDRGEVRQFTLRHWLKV

[18] = molecular target: T3, GABA-A receptor; anion channel (Rattus norvegicus) (UniProt O09028+P15431+P18506+P18508+P19969+P20236+P23574+P23576+P28471+P28473+P30191+P62813+P63079+P63138+Q91ZM7+Q9ES14); conditions: Compound concentration 10.0 uM
[19] = molecular target: D(3) dopamine receptor (Homo sapiens) (UniProt P35462); conditions: Compound concentration 10.0 uM
[20] = molecular target: Beta-1 adrenergic receptor (Homo sapiens) (UniProt P08588); conditions: Compound concentration 10.0 uM
[21] = molecular target: Muscarinic acetylcholine receptor M2 (Homo sapiens) (UniProt P08172); conditions: Compound concentration 10.0 uM
[22] = molecular target: Muscarinic acetylcholine receptor M1 (Homo sapiens) (UniProt P11229); conditions: Compound concentration 10.0 uM
[23] = molecular target: T3, GABA-A receptor; anion channel (Rattus norvegicus); conditions: Compound concentration 10.0 uM; remark: listed apart in the source
[24] = molecular target: 5-hydroxytryptamine receptor 2A (Homo sapiens, UniProt P28223); conditions: Compound concentration 10.0 uM
[25] = molecular target: 5-hydroxytryptamine receptor 5A (Homo sapiens, UniProt P47898); conditions: Compound concentration 10.0 uM
5-hydroxytryptamine receptor 5A, sequence (P47898 whole entry): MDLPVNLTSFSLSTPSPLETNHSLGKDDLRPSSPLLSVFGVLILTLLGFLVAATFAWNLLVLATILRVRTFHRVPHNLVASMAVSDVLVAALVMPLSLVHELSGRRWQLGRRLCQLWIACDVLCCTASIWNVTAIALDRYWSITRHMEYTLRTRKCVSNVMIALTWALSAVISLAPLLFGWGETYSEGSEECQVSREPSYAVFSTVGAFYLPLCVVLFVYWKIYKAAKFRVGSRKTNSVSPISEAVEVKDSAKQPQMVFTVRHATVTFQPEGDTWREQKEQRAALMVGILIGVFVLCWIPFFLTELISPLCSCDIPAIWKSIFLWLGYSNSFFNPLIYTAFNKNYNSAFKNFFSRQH

[26] = molecular target: D(4) dopamine receptor (Homo sapiens) (UniProt P21917); conditions: Compound concentration 10.0 uM
D(4) dopamine receptor (Homo sapiens), sequence (P21917 whole entry): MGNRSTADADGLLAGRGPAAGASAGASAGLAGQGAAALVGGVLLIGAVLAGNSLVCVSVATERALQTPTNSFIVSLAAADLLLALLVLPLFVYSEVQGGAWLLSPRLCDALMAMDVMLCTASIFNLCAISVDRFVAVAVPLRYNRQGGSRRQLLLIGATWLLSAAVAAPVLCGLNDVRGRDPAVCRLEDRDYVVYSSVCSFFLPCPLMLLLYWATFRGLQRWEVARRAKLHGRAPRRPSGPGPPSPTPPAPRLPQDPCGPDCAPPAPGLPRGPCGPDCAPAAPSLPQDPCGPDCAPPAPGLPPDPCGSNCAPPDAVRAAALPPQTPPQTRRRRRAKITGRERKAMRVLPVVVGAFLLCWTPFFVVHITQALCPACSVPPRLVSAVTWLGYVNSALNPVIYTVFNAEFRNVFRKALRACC

[27] = molecular target: Alpha-2B adrenergic receptor (Homo sapiens) (UniProt P18089); conditions: Compound concentration 10.0 uM
Alpha-2B adrenergic receptor (Homo sapiens), sequence (P18089 whole entry): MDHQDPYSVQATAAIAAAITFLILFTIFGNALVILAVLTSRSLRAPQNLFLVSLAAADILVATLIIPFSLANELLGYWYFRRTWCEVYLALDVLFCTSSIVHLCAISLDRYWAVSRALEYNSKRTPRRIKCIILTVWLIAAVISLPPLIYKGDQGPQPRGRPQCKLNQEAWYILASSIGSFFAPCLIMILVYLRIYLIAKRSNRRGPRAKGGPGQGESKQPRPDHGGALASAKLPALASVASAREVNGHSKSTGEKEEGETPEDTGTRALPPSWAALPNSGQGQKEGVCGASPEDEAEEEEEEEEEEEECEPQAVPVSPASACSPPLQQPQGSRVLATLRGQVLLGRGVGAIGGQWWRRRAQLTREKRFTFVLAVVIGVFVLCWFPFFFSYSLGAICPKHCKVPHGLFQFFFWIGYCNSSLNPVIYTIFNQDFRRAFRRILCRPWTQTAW

[28] = molecular target: Kappa-type opioid receptor (Homo sapiens) (UniProt P41145); conditions: Compound concentration 10.0 uM
[29] = molecular target: T4, Alpha-2C adrenergic receptor (Homo sapiens, UniProt P18825); assay: GPCRScan assay: inhibition of Alpha2C; design: radioligand conc. used [nm] 0.5 – 1.0, parental cells stable MDCK; conditions: for pKi: read-out: Ki; for Ki: read-out: pKi (converted)
T4 sequence (P18825 whole entry): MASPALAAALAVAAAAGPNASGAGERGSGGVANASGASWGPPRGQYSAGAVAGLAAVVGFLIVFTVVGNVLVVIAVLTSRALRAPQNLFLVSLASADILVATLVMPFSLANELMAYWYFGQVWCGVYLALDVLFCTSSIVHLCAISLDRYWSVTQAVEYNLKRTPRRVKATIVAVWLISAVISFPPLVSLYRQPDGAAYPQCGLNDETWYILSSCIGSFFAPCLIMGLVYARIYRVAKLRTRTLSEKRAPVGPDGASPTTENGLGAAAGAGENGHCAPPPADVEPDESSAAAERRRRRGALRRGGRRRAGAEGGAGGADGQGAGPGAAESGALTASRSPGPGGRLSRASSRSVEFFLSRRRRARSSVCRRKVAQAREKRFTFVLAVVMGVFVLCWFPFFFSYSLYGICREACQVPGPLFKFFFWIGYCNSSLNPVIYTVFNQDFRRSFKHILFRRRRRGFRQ

[30] = molecular target: 5-hydroxytryptamine receptor 3A (Homo sapiens) (UniProt P46098); conditions: Compound concentration 10.0 uM
5-hydroxytryptamine receptor 3A (Homo sapiens), sequence (P46098 whole entry): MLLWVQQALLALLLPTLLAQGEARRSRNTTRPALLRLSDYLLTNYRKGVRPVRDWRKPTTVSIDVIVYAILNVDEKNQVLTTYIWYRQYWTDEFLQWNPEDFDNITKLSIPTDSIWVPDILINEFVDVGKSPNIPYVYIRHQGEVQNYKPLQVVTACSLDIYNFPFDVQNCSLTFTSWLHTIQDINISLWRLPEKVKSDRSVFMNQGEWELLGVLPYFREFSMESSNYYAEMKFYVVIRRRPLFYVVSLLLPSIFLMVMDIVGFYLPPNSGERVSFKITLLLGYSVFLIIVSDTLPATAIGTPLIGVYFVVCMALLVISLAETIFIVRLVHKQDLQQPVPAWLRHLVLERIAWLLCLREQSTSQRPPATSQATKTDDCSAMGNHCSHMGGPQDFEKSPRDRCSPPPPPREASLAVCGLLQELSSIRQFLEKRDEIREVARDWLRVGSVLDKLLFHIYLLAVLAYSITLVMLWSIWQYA

5-hydroxytryptamine receptor 1A (Homo sapiens), sequence (P08908 whole entry): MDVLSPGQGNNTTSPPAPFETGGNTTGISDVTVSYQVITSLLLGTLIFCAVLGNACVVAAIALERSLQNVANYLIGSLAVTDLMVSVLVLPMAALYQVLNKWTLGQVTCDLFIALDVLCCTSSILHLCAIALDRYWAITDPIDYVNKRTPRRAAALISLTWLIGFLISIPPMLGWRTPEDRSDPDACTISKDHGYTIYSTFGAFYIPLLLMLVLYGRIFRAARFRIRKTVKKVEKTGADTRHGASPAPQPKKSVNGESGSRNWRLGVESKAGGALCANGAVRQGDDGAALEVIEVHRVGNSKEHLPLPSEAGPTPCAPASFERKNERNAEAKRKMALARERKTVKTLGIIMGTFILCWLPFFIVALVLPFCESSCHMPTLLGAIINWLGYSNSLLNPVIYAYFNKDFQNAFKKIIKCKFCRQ

inhibition [1] | pKi [2] | Ki [2] | inhibition [3] | inhibition [4] | inhibition [5] | inhibition [6] | inhibition [7] | pKi [8] | Ki [8] | inhibition [9] | inhibition [10] | inhibition [11] | pKi [12] | Ki [12] | inhibition [13] | inhibition [14] | inhibition [15] | inhibition [16] | inhibition [17] | SMILES | also measured
26.7% | 6.57 | 257 nM | 19.2% | 26% | 25.9% | 26.5% | 8.02% | 5.51 | 3020 nM | 96.8% | 6.46% | 35.8% | 5.69 | 1820 nM | 98.8% | 91.7% | 93.8% | 77.2% | 98% | CN1CCN(c2ccnc(NCCc3ccccc3)n2)CC1 [TP-040n] | inhibition [18]: 22.9%; inhibition [19]: 22.6%; inhibition [20]: 6.05%; inhibition [21]: -1.51%; inhibition [22]: 18.6%; inhibition [23]: 34.6%; inhibition [24]: 72.9%; inhibition [25]: 59.8%; inhibition [26]: 13%; inhibition [27]: 98%; inhibition [28]: 23.7%; pKi [29]: 6.38; Ki [29]: 407 nM; inhibition [30]: 22.4%
30% | 6.43 | 363 nM | 15.4% | 25.1% | 20.6% | -8.84% | 4.65% | 5.71 | 1910 nM | 51.8% | 25.1% | 5.83% | 6.38 | 631 nM | 36.6% | 81.8% | 75.8% | 33.6% | 20.6% | CC1CCN(c2ccnc(NCc3cn(C)cn3)n2)CC1 [TP-040] | inhibition [18]: 67.4%; inhibition [19]: 47%; inhibition [20]: 3.97%; inhibition [21]: 7.21%; inhibition [22]: 17.2%; inhibition [23]: 2.33%; inhibition [24]: 33.8%; inhibition [25]: 24%; inhibition [26]: 3.89%; inhibition [27]: 56.3%; inhibition [28]: 36.6%; pKi [29]: 5.46; Ki [29]: 3390 nM; inhibition [30]: 27.7%
